Measured values from patent US7262003B2, “Plant test procedure to detect natural, semi-synthetic, synthetic compounds and physical stress factors through expression of distinct responses” (Council of Scientific and Industrial Research, priority 1998, dated 2007).
Entries after “also recorded” stand apart in the source; their conditions may differ. Where two headings read alike, the source gives them in different places.

Key:
[1] = tested on: Bacopa monnieri leaf, internode and twig cuttings; test: Response of leaf, internode and twig cutting explants to growth promoters (auxins, cytokinins) in MS 0 medium; assay type: in vivo; details: for Response observed, Cutting: MS 0 medium containing 1.0 mg/litre; for Response observed, Cutting / Response observed, Internode / Response observed, Leaf: recorded up to two weeks; for Response of leaf, internode and cuttings: MS 0 supplemented at 0.5 and 1.0 mg/litre
Description: Initially the experiments were designed to observe the response of leaf, internode and cuttings against growth promoters (auxins: 2,4-D & Indole acetic acid) and […] (cytokinins: 6-Benzyl amino purine & kinetin). The basal medium for studying the response was MS 0 (Murashige T and Skoog F, 1962, Physiol. Planta. 15: 473–497) supplemented with these growth regulators at the rates of 0.5 and 1.0 mg/litre along with a control of just the basal medium.
The basal medium for studying the response was MS 0 (Murashige T and Skoog F, 1962, Physiol. Planta. 15: 473–497) supplemented with test compounds along with a control of just the basal medium. Measured 0.5 ml medium was poured into 1.5 ml graduated microcentrifuge tubes. Into this, twig cutting of 2.5 cm were inoculated in 20 replicates for each type of medium. These inoculated tubes were put into a half transparent (top lid) box allowing air passage through sterile cotton plugs such that the medium containing portion of the tubes where roots would be initiating is inserted into the stand holes made from a thermocol sheet. Refer FIG. 1 of Sheet #1. […] Such boxes were incubated at normal ambient temperature of 25–28° C. with 14 hours light and 10 hours dark cycle.
To find out the effect of growth promoters such as Indole 3 acetic acid (IAA), 2,4-Dichlorophenoxy acetic acid (2,4-D), and cytokinins such as 6-Benzyl Amino Purine (6-BAP) and Kinetin, the leaf, internode and twig cuttings were inoculated into MS 0 medium containing […] of the above said compounds and the responses were recorded up to two weeks in terms of rooting, callusing and shoot regeneration (Table 1).

[2] = tested on: Bacopa cultures; details: in vivo; cited from earlier work
[3] = tested on: regenerants of Bacopa monniera; details: cited from earlier work
[4] = tested on: Bacopa root tips; assay type: in vivo, Bacopa monnieri
[5] = tested on: Bacopa monnieri twig cuttings; assay type: in vivo
[6] = tested on: Avocado cv. Verde in vitro; details: antibiotic in the plant growth medium; cited from earlier work
[7] = tested on: Bacopa monnieri twigs; test: Cytotoxic/weedicidal effect: menthol in medium and Mentha arvensis oil sprayed on twigs; assay type: in vivo; details: menthol added to the medium and oil sprayed on the twigs
Description: We also planned the experiments to determine if this procedure can depict a clear cut manifestation of cytotoxic/weedicidal effect of compounds. For this purpose we used a known essential oil of Mentha arvensis, which is rich in the toxic but useful component, menthol as the treatment. The procedure involved was same as in the above examples with the exception that menthol was added to the medium and oil was sprayed on these twigs which were inoculated into the medium. […] Refer to FIG. #4 of Sheet #2.

[8] = tested on: Bacopa monnieri twigs; test: Growth inhibitor test on twigs in basal MS media; assay type: in vivo; details: after 10 days of inoculation
Description: The basal medium for studying the response was MS 0 (Murashige T and Skoog F, 1962, Physiol. Planta. 15: 473–497) supplemented with test compounds along with a control of just the basal medium. Measured 0.5 ml medium was poured into 1.5 ml graduated microcentrifuge tubes. Into this, twig cutting of 2.5 cm were inoculated in 20 replicates for each type of medium. These inoculated tubes were put into a half transparent (top lid) box allowing air passage through sterile cotton plugs such that the medium containing portion of the tubes where roots would be initiating is inserted into the stand holes made from a thermocol sheet. Refer FIG. 1 of Sheet #1. This set up was helpful in preventing the light exposure to the root portion while at the same time aerial parts got sufficient light and aeration. Such boxes were incubated at normal ambient temperature of 25–28° C. with 14 hours light and 10 hours dark cycle. […] The earliest response was seen was on day 3 in the case of medium containing ¼th level of nitrogen followed by medium containing normal level of nitrogen, while in the case of zero nitrogen, initiation was observed only after 8 days. Thus, the medium with ¼ nitrogen level of standard MS basal medium was selected for root assays and was referred as MSR (rooting) medium.
The effects of growth inhibitors were also tested using the protocol as described in Example 1. […]

[9] = 10 and 100 μg/ml in MSR, up to day 15
[10] = concentrations ranging from 1 to 100 μg/ml, 14 days

O=C(O)COc1ccc(Cl)cc1Cl [2,4-D, 2,4-Dichlorophenoxy acetic acid]
Response observed, Cutting [1]: Aerial Root | Response observed, Internode ([1]; MS 0 medium containing 1 mg/ml): Root Initiation; also recorded: Root Thickening; also recorded: Explant Swelling | Response observed, Leaf ([1]; MS 0 medium containing 1 mg/ml): Root Initiation; also recorded: Root Thickening; also recorded: Callus Initiation | Response of leaf, internode and cuttings [1]: small thick roots got initiated at the internodes

[Cl][Al]([Cl])[Cl] [AlCl3]
Concentration beyond which Bacopa cultures could not survive [2]: 400 µM

c1ccc(CNc2ncnc3nc[nH]c23)cc1 [BAP, 6-Benzyl Amino Purine]
Response observed, Cutting [1]: Root Initiation and Root | Response observed, Internode ([1]; MS 0 medium containing 1 mg/ml): Callus Initiation; also recorded: Shoot | Response observed, Leaf ([1]; MS 0 medium containing 1 mg/ml): Callus Initiation; also recorded: Shoot | Response of leaf and internodal explant ([1]; MS 0 medium containing 1 mg/ml, up to two weeks): green callus has formed, followed by shoot regeneration | Response of leaf, internode and cuttings [1]: green callus developed in all three explants followed by shoot regeneration

[Cd] [Cd, cadmium]
Concentration tolerated ([3]; grown with additional supply of Cu): up to 100 μM | Concentration beyond which regenerants did not survive ([3]; in vivo): 50 µM

O=C(O)Cc1c[nH]c2ccccc12 [IAA, Indole 3 acetic acid]
Response observed, Cutting [1]: Aerial Root | Response observed, Internode ([1]; MS 0 medium containing 1 mg/ml): Root Initiation | Response observed, Leaf ([1]; MS 0 medium containing 1 mg/ml): Root Initiation | Response of leaf, internode and cuttings [1]: profuse rooting

c1coc(CNc2ncnc3[nH]cnc23)c1 [Kinetin]
Response observed, Cutting [1]: Root Initiation and Root | Response observed, Internode ([1]; MS 0 medium containing 1 mg/ml): No Response | Response observed, Leaf ([1]; MS 0 medium containing 1 mg/ml): Root Initiation

CC(=O)O[C@H]1C(=O)[C@@]2(C)[C@H]([C@H](OC(=O)c3ccccc3)[C@]3(O)C[C@H](OC(=O)[C@H](O)[C@@H](NC(=O)c4ccccc4)c4ccccc4)C(C)=C1C3(C)C)[C@]1(OC(C)=O)CO[C@@H]1C[C@@H]2O [Taxol, taxol]
Effect on mitotic index (words) ([4]; 10 μg/ml): significantly reduce the mitotic index | Reduction of mitotic index compared to untreated control samples ([4]; 10 μg/ml): 2.55 fold | Number of cells in phase Ana ([4]; 10 μg/ml, dipping 3 hours): 01 | Number of cells in phase Meta ([4]; 10 μg/ml, dipping 3 hours): 03 | Number of cells in phase Pro ([4]; 10 μg/ml, dipping 3 hours): 01 | Number of cells in phase Telo ([4]; 10 μg/ml, dipping 3 hours): 00 | Mitotic Index ([4]; 10 μg/ml, dipping 3 hours, 10 randomly selected fields): 7.14 ± 1.52 | Effect on mitotic index (words) ([4]; 10 μg/ml, listed as taxol): substantial reduction in the mitotic index | Cell division in the root tips ([4]; 100 μg/ml): inhibited almost complete cell division | Root initiation [5, 9]: inhibited the complete root initiation | Visible effect on the aerial parts [5, 9]: wilting of the leaves | Root initiation [5, 10]: did not initiate the roots at all | Shoot growth and health [5, 10]: no shoot growth; also recorded: wilting and later withering

O=C(N[C@H](CO)[C@H](O)c1ccc([N+](=O)[O-])cc1)C(Cl)Cl [chloramphenicol]
Toxicity to avocado (length of sprouts reduced) [6]: toxic

CC1CCC(C(C)C)C(O)C1 (centres unmarked) [menthol]
Spread of chlorophyll loss [7]: within a week time covered whole twig

CCn1cc(C(=O)O)c(=O)c2ccc(C)nc21 [nalidixic acid, Nalidixic acid]
Root initiation and growth ([8]; 10 μg/ml): roots got initiated from the submerged nodes but their growth was less than the control | Root initiation and growth ([8]; 100 μg/ml): very small roots arose from submerged node and their growth was completely arrested | Toxicity to avocado (length of sprouts reduced) [6]: toxic

[H]/N=C(/N)N[C@H]1[C@H](O)[C@@H](O)[C@H](O[C@@H]2O[C@@H](C)[C@](O)(C=O)[C@H]2O[C@@H]2O[C@@H](CO)[C@H](O)[C@@H](O)[C@@H]2NC)[C@@H](N/C(N)=N\[H])[C@@H]1O [streptomycin]
Toxicity to avocado (length of sprouts reduced) [6]: toxic
